Tests used:
[1] = Storage stability of chlorin e6 in aqueous solutions with or without human serum albumin, measured by analytical HPLC; format: physicochemical; conditions: for residual active ingredient content / residual active ingredient content (HPLC area) / residual active ingredient content compared with 5 wt. % HSA / residual content of chlorin e6 (HPLC area) / residual chlorin e6 (HPLC area): 30° C.; for residual active ingredient content / residual active ingredient content (HPLC area): 5 wt. % HSA; for residual active ingredient content: all three pH values (7.0, 7.5, 8.0); for residual active ingredient content compared with 5 wt. % HSA: 10 wt. % HSA, pH 7 and pH 7.5; for residual content of chlorin e6 (HPLC area): 20 wt. % HSA; for residual content of chlorin e6 (mean) / residual active ingredient content (mean) / residual active ingredient content (HPLC area, mean) / residual active ingredient content (bound) / residual chlorin e6 (HPLC area, mean): 5° C.; for residual content of chlorin e6 (mean): pH 8.0, 1.25 wt. % HSA; for residual active ingredient content (mean): pH 8.0, 2.5 wt. % HSA; for residual active ingredient content (HPLC area, mean) / residual active ingredient content (bound): pH 8.0, 5 wt. % HSA; for residual chlorin e6 (HPLC area, mean): pH 8.0, pure buffer
Method: In order to determine the stability of a composition comprising chlorin e6 and an albumin, three buffer solutions with pH values of 7.0, 7.5 and 8.0, each of which contained potassium dihydrogen phosphate (Merck) and disodium hydrogen phosphate (Merck) as buffer salts, were prepared and sterilised.
Starting from a 20 wt. % stock solution of human serum albumin (Biotest AG), dilute solutions comprising 10 wt. %, 5 wt. % and 0 wt. % human serum albumin were then prepared by means of the above buffer solutions. For the buffering of the 20 wt. % stock solution of human serum albumin, the buffer salts were added in the form of solids directly to 20 ml aliquots of the stock solution.
Thereafter, 2 ml of each of the various buffered solutions were introduced into brown glass bottles with crimped caps, and 40 μl of a 75 mM solution of chlorin e6 sodium salt (ORPEGEN Peptide Chemicals GmbH) in water were added thereto. In this manner there were prepared aqueous solutions of chlorin e6 sodium salt having a concentration of 0 wt. %, 1.25 wt. %, 2.5 wt. %, 5 wt. %, 10 wt. % and 20 wt. % human serum albumin which had pH values of 7.0, 7.5 and 8.0. For the purpose of reproducibility of the results, the individual solutions were each made up several times.
The solutions were re-packaged in a light-tight manner and incubated at 30° C. in a drying cabinet or at 5° C. in a refrigerator. […] Maisch GmbH); eluant: 80 mM triethylammonium phosphate buffer pH 2.25/acetonitrile). The extent of the decomposition of chlorin e6 was calculated in each case by comparing the areas under the peak belonging to chlorin e6 in the HPLC diagram before and after storage.

[2] = 48 hours after administration; cited from earlier work

residual active ingredient content ([1]; 4 weeks): > 95%
residual active ingredient content (HPLC area) ([1]; 4 weeks, pH 7.0): 95.3 % area
residual active ingredient content (HPLC area) ([1]; 4 weeks, pH 7.5): 97.5 % area
residual active ingredient content (HPLC area) ([1]; 4 weeks, pH 8.0): 98.6 % area
residual active ingredient content compared with 5 wt. % HSA ([1]; 4 weeks): slightly higher
residual content of chlorin e6 (HPLC area) ([1]; 4 weeks, pH 7.0): 94.6 % area
residual content of chlorin e6 (HPLC area) ([1]; 4 weeks, pH 7.5): 96.4 % area
residual content of chlorin e6 (HPLC area) ([1]; 4 weeks, pH 8.0): 96.6 % area
residual chlorin e6 (HPLC area) ([1]; 4 weeks, pure buffer, no HSA, pH 7.0): 1.9 % area
residual chlorin e6 (HPLC area) ([1]; 4 weeks, pure buffer, no HSA, pH 7.5): 2.4 % area
residual chlorin e6 (HPLC area) ([1]; 4 weeks, pure buffer, no HSA, pH 8.0): 3.6 % area
residual content of chlorin e6 (mean) ([1]; 6 months): approximately 83.6%
residual active ingredient content (mean) ([1]; 6 months): approximately 96.6%
residual active ingredient content (HPLC area, mean) ([1]; 6 months): 97.9 % area
residual active ingredient content (bound) ([1]; 6 months): > 97%
residual chlorin e6 (HPLC area, mean) ([1]; 6 months, no HSA): 1.1 % area
residual content of chlorin e6 (mean) ([1]; 9 months): approximately 84.9%
residual active ingredient content (mean) ([1]; 9 months): approximately 93.8%
residual active ingredient content (HPLC area, mean) ([1]; 9 months): 96.4 % area
residual active ingredient content (bound) ([1]; 9 months): > 96%
residual chlorin e6 (HPLC area, mean) ([1]; 9 months, no HSA): 1.74 % area
residual active ingredient content ([1]; 10 weeks): > 94%
residual active ingredient content (HPLC area) ([1]; 10 weeks, pH 7.0): 94.1 % area
residual active ingredient content (HPLC area) ([1]; 10 weeks, pH 7.5): 96.0 % area
residual active ingredient content (HPLC area) ([1]; 10 weeks, pH 8.0): 97.8 % area
residual active ingredient content compared with 5 wt. % HSA ([1]; 10 weeks): slightly higher
residual content of chlorin e6 (HPLC area) ([1]; 10 weeks, pH 7.0): 91.9 % area
residual content of chlorin e6 (HPLC area) ([1]; 10 weeks, pH 7.5): 94.0 % area
residual content of chlorin e6 (HPLC area) ([1]; 10 weeks, pH 8.0): 95.9 % area
residual chlorin e6 (HPLC area) ([1]; 10 weeks, pure buffer, no HSA, pH 7.0): 0 % area
residual chlorin e6 (HPLC area) ([1]; 10 weeks, pure buffer, no HSA, pH 7.5): 0.52 % area
residual chlorin e6 (HPLC area) ([1]; 10 weeks, pure buffer, no HSA, pH 8.0): 0.89 % area
residual content of chlorin e6 (mean) ([1]; 12 months): approximately 69.5%
residual active ingredient content (mean) ([1]; 12 months): approximately 93.6%
residual active ingredient content (HPLC area, mean) ([1]; 12 months): 96.7 % area
residual active ingredient content (bound) ([1]; 12 months): > 96%
residual chlorin e6 (HPLC area, mean) ([1]; 12 months, no HSA): 0.26 % area
residual chlorin e6 (HPLC area) ([1]; 4 days, addition of Na caprylate or N-acetyl-DL-tryptophan, no human serum albumin): 68.8 % area
residual chlorin e6 (HPLC area) ([1]; 4 days, buffer solution pH 8, 5 wt. % human serum albumin): 97.8 % area
residual chlorin e6 (HPLC area) ([1]; 4 days, non-buffered solution adjusted to pH 7, 5% human serum albumin): 97.0 % area
residual chlorin e6 (HPLC area) ([1]; 4 days, pure buffer solution pH 8, no human serum albumin): 59.1 % area
storage life of aqueous solution of chlorin e6 with human serum albumin ([1]; storage at 2 to 8° C., extrapolated from data of FIGS. 1 to 6): at least 12 months
Structure (SMILES): C=Cc1c(C)c2cc3nc(c(CC(=O)O)c4[nH]c(cc5nc(cc1[nH]2)C(C)=C5CC)c(C)c4C(=O)O)[C@@H](CCC(=O)O)[C@@H]3C [chlorin e6]
active substance detectable in the human organism [2]: only traces
